The text below walks through data of US20240174637A1, “DEGRADERS OF GRK2 AND USES THEREOF” (Sonata Therapeutics, Inc., priority 2021, published 2024).

The test system of test [1] is PAXF1657 EV. In words: 7-day cellular proliferation assay (CellTiter-Glo), PAXF1657 EV. The test is classed as cell-based. Conditions: 168 h, 7-day, read-out: 7-day proliferation assay: IC50 GeoMean (uM) [Cell Line: PAXF1657 EV]. Summed up: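 Viability by CellTiter-Glo after 7 days at 37° C., with compound-containing media replaced on day 3. Cells (500/well, RPMI1640 + 10% FBS) were PAXF1657 pairs: GRK2 overexpression vs empty vector, or CRISPR GRK2 knockout vs non-targeting clones; doses 30 μM-0.0002 μM final, 10 points, 0.3% DMSO.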

Test [2] has as its target T1, GRK2 (Homo sapiens, UniProt P25098).
T1 sequence (P25098 1-689): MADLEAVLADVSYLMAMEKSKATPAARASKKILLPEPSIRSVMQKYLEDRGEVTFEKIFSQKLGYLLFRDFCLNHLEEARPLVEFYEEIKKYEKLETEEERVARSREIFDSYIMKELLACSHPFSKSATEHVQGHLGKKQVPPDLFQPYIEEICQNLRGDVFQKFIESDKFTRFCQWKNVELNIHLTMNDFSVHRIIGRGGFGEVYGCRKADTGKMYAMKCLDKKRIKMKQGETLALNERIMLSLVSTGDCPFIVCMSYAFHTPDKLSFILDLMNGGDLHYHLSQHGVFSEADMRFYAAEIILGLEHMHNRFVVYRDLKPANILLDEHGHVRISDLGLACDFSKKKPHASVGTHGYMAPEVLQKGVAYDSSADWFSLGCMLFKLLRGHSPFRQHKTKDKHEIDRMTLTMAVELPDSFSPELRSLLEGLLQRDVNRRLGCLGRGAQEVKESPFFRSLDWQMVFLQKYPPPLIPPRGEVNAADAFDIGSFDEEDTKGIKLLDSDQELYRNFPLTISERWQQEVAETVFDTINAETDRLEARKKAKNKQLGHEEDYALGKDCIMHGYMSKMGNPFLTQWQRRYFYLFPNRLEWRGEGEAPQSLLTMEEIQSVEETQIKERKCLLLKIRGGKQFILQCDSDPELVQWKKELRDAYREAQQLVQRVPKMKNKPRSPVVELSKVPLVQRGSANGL
In words: GRK2 Degradation Assay and Western Blot in PAXF1657 cells. The test is classed as cell-based. Set-up: endogenous in cells; host or cells: PAXF1657. Conditions: PAXF1657 EV, 24 hrs; for inhibition at 1 µM: read-out: % GRK2 degradation at 1 uM in PAXF1657 EV (24 hrs). Summed up: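 GRK2 degradation judged by immunoblot: NP40 lysates separated by SDS-PAGE and probed for GRK2 and β-actin, with HRP/ECL detection. Lysates came from PAXF1657 cells exposed to 0–10 μM compound for 6–24 h after reaching 70% confluency.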

A value given as a limit tells only on which side of the number the result lay.

Turning to `Cc1ncsc1-c1ccc(CNC(=O)[C@@H]2C[C@@H](O)CN2C(=O)[C@@H](NC(=O)COCCOCCOCCOCCOCCOCCCCCCOc2cccc(CNC(=O)c3cccc(NCc4nnc(-c5ccncn5)n4C)c3)c2)C(C)(C)C)cc1` [Compound D100], the IC50 in test [1] is > 10 µM. For the same compound, in test [2], the inhibition at 1 µM is 22% and the “% GRK2 degradation at 10 uM in PAXF1657 EV (24 hrs)” value is recorded as 39%.
Turning to `Cc1ncsc1-c1ccc(CNC(=O)[C@@H]2C[C@@H](O)CN2C(=O)[C@@H](NC(=O)COCCOCCCCCCOc2cccc(CNC(=O)c3cccc(NCc4nnc(-c5ccncn5)n4C)c3)c2)C(C)(C)C)cc1` [Compound D101], the IC50 in test [1] is < 1 µM. Moreover, in test [2], the inhibition at 1 µM worked out at 18% and the “% GRK2 degradation at 10 uM in PAXF1657 EV (24 hrs)” value amounted to 10%.
